{"source": "paper PMC9862186", "about": "(International Journal of Molecular Sciences, 2023)", "key": {"PC12 cells": {"tested_on": "PC12 cells", "assay": "Dopamine release from neuronal differentiated PC12 cells (ELISA)", "type": "cell-based, rat", "experimental": "PC12 cell line (RRID:CVCL_0481), derived from rat adrenal gland pheochromocytoma, was a kind gift from Dr Federica Brugnoli from the Department of Translational Medicine, University of Ferrara, Ferrara (Italy). The cells were grown in RPMI-1640 (HiGlutaXL) medium (Microtech, Naples, Italy), supplemented with 100 µg/mL streptomycin and 100 IU/mL penicillin, 10% horse serum (HS), and 5% fetal bovine serum (FBS). PC12 cells were gently removed from the 4 µg/cm^2 collagen IV-coated flask with a rubber scraper, transferred as cell suspension into a Falcon tube and resuspended through a sterile tip to avoid any clumping, then split into separate flasks twice weekly. To differentiate neuronal phenotypes, PC12 cells were seeded in 4 µg/cm^2 collagen IV-coated 12-well plates at a density of 5000 cells/well, and they were then left to adhere to the well for 24 h. […] All the proliferative and differentiated cultures were maintained at 37 °C in a humidified 5% CO2 atmosphere.\nPC12 cells differentiated to neuronal-like phenotype in collagen IV-treated 12-well plates, were first synchronized all to the same circadian phase and cell cycle by a serum shock (50% HS and 50% DMEM HiGlutaXL) for 2 h at 37 °C [49] to achieve a synchronous release of dopamine. Synchronization medium was then aspirated off, cells were washed with 3 × 1 mL and equilibrated for 15 min at 37 °C in 1 mL of Krebs Ringer HEPES (KRH) physiological buffer, following the recipe of Mount et al. (25 mM HEPES/Tris, pH 7.4, 1.2 mM KH2PO4, 125 mM NaCl, 4.8 mM KCl, 1.2 mM MgSO4, 2.2 mM CaCl2, 5.6 mM glucose, 1.0 mM ascorbic acid, 10 µM pargyline, 1.0 µM nomifensine). […] To remove cell debris, all samples of 1 mL incubation KRH at the end of treatments were centrifuged at 1000× g for 20 min at 4 °C and stored at −20 °C until dopamine levels were determined by ELISA assay.\nDopamine levels in 1 mL incubation KRH buffer were detected by means of an ELISA assay, based on the […] ELISA principle for detection of dopamine, following manufacturer’s instructions (IBL International, Hamburg, Germany–catalog no: RE59161; purchased from Tecan Italia S.r.I, Milan, Italy). After the substrate reaction, the intensity of the developed color was proportional to the amount of dopamine, detected at 450 nm using a microplate reader spectrophotometer (Sunrise® Microplate Reader, Tecan Trading AG, Männedorf, Switzerland). Results of samples were determined directly using the standard curve. Results are presented as mean ± SE values of four independent experiments. Data were plotted and analyzed with GraphPad software (Prism, version 7.0, San Diego, CA, USA)."}, "in vivo [1]": {"assay": "in vivo", "details": "male, Wistar, rat, in vivo, iv", "experimental": "A saline solution (0.9% NaCl) was added to a mixture of cinnamaldehyde (density = 1.05 g/mL) and Cremophor® RH 40 (1:1 v/v) in order to obtain a 12.5 mg/mL cinnamaldehyde emulsion in the presence of ethanol (10% of final volume). A group (n = 4) of male Wistar rats (200–250 g) fasted for 24 h was anesthetized during the experimental period and received 0.4 mL via a femoral intravenous infusion (rate = 0.2 mL/min; 2 min) of 12.5 mg/mL cinnamaldehyde emulsion (20 mg/kg cinnamaldehyde dose).\n(§1) At the end of the infusions and at fixed time points, CSF samples (50 μL) were withdrawn and blood samples (100 μL) were collected. The CSF was withdrawn using the cisternal puncture method described by van den Berg et al., which requires a single needle stick and allows the collection of serials (40–50 μL) CSF samples that are virtually blood-free. A total volume of about a maximum of 150 μL of CSF/rat (i.e., three 50 μL samples/rat) was collected during the experimental session, choosing the time points (n = 3–5, taking into account a maximum of three collections per rat) in order to allow the restoring of the CSF physiological volume.\nThe chromatographic apparatus consisted of a modular system (model LC-10 AD VD pump and model SPD-10A VP variable wavelength UV−vis detector; Shimadzu, Kyoto, Japan) and an injection valve with 20 μL sample loop (model 7725; Rheodyne, IDEX, Torrance, CA, USA). Separations were performed at room temperature on a 5 μm Hypersil BDS C-18 column (150 mm × 4.6 mm i.d.; Alltech Italia Srl, Milan, Italy) equipped with a guard column packed with the same Hypersil material. The volume injection was 10 μL. Data acquisition and processing were performed on a personal computer using CLASS-VP Software, version 7.2.1 (Shimadzu Italia, Milan, Italy).\nFor CSF simulation, standard aliquots of balanced solution (Dulbecco’s phosphate buffer saline—DPBS—without calcium and magnesium) in the presence of 0.45 mg/mL BSA were used."}, "in vivo [2]": {"assay": "in vivo", "details": "rat, po", "experimental": "as §1\nEach type of formulation was administered to a group of four rats.\nIn particular, 4.2 mL of EU-CD formulation were administered to rats (500 mg/kg dose).\nIn particular, 320 μL of EU-SL formulation were administered to rats (500 mg/kg dose).\nFree cinnamaldehyde (100 mg) was orally administered by gavage to rats kept fasting since 24 h. In particular, 95 μL of cinnamaldehyde (density = 1.05 g/mL) were dissolved in 905 μL of corn oil and administered to rats (400 mg/kg dose).\nThe solid AC-GN formulation (14% w/w cinnamaldehyde) was mixed with palatable food in order to induce their oral intake by the rats kept fasting since 24 h. In particular, the rats assumed a dose of 100 mg of cinnamaldehyde (400 mg/kg) contained in 714 mg of AC-GN.\nAfter the administrations, blood (100 μL) and CSF samples (50 μL) were serially collected at fixed time points from each rat and treated as described above in order to quantify the compounds."}}}
{"smiles": "C=CCc1ccc(O)c(OC)c1", "note": "[Eugenol]", "values": [{"measurement": "effect on dopamine release over pre-treatment baseline", "setting": "PC12 cells; 25 µM, 5, 15, 30, 60 and 120 min, baseline 393 ± 12 pg/mL, p < 0.001 at 5, 15, 120 min, p < 0.05 at 30, 60 min", "result": "statistically significant increase"}, {"measurement": "incubation time with the higher effect on dopamine release", "setting": "PC12 cells; 25 µM, time course 5, 15, 30, 60, 120 min, U-shaped curve", "result": 120, "unit": "min"}, {"measurement": "concentration giving the lower effect on dopamine release, still significant vs. basal", "setting": "PC12 cells; 0.5, 1, 2, 5 and 25 µM for 5 min, basal release 947 ± 102 pg/mL", "result": 5, "unit": "µM"}, {"measurement": "Tmax: time of Cmax in CSF", "setting": "in vivo [1]", "result": 10, "unit": "min"}, {"measurement": "AUC", "setting": "in vivo [1]; 20 mg/kg", "result": 0.935, "unit": "µg·h/mL"}, {"measurement": "Cmax", "setting": "in vivo [1]; 20 mg/kg", "result": "2.79 ± 0.18", "unit": "µg/mL"}, {"measurement": "time within which CSF concentrations decreased to zero or near to zero", "setting": "in vivo [1]; 20 mg/kg", "result": "≤ 45", "unit": "min"}, {"measurement": "Kp at 10 min", "setting": "in vivo [1]; R: ratio of concentration between CSF and bloodstream at Tmax", "result": 0.96}, {"measurement": "AUC", "setting": "in vivo [2]", "result": 0.516, "unit": "µg·h/mL"}, {"measurement": "Tmax: time of Cmax in CSF", "setting": "in vivo [2]", "result": 20, "unit": "min"}]}
